Results taken from PubChem BioAssay AID1963838 (Molecular Pharmacology Branch, DTP, NCI, 2024).
pIC50: −log10 of the molar value. Where “and” joins values, the source holds several entries; their conditions need not be identical. Identical values can stand only once.

Tested on: 855422-203-R-J1-PDC complex spheroid viability
Experiment: Anticancer human tumor 855422-203-R-J1-PDC patient-derived bladder carcinoma cell line growth inhibition [POLQ]
Settings: for viability, T/C: stronger effect = lower value; for pIC50: curve of compound
Description: Multicellular complex tumor spheroid response to Polymerase (POL) inhibitors (novobiocin, ART-558, RP6685) in combination with a variety of drugs and investigational agents in selected tumor cell lines
The POL inhibitors (novobiocin, ART-558, and RP6685) were evaluated both individually and in combination with standard of care and investigational anticancer small molecules within a complex spheroid model of solid tumors. . Complex spheroids include a stromal component modeled by human endothelial cells (HUVEC) and fibroblasts modeled by human mesenchymal stem cells (MSCs). The concentration ranges selected for each drug and investigational agent were based upon clinically achievable concentrations if the clinical Cmax of the agent was known.
Compounds. The drugs and investigational agents: novobiocin (NSC847541), ART-558 (NSC835418), RP-6685 (NSC848927), peposertib (NSC802822), ceralasertib (NSC780249), elimusertib (NSC800525), camonsertib (NSC841442), AZD-1390 (NSC803789), olaparib (NSC753686), talazoparib (NSC767125), rucaparib (NSC756644), sotorasib (NSC818433), MRTX-1133 (NSC836407), SN-38 (NSC673596), topotecan (NSC609699), epotoside (NSC141540), doxorubicin (NSC123127), gemcitabine (NSC613327), 5-fluorouracil (NSC19893), paclitaxel (NSC125973), vemurafenib (NSC761431), MSA-2 (NSC828583), SN-011 (NSC837082), adavosertib (NSC754352), prexasertib (NSC758257), carboplatin (NSC241240) and oxaliplatin (NSC266046), were obtained from the National Cancer Institute (NCI) Developmental Therapeutics Program Chemical Repository (21). The FDA-approved anticancer drug set is available from the Developmental Therapeutics Program at https://dtp.cancer.gov/organization/dscb/obtaining/. […] The stock solutions were prepared in dimethyl sulfoxide (DMSO, Sigma-Aldrich, St. Louis, MO, cat. D2650), except for the platinum compounds which were prepared in saline (Quality Biological, Gaithersburg, MD, cat. 114-055-101), at 800-fold the tested concentration and stored at -70 degrees C prior to their use. All drugs and investigational agents were tested over a range starting from a high concentration at or near the clinical Cmax and decreasing in half-log increments. If the clinical Cmax for an agent had not been determined, the highest concentration tested was 10 microM, except for SN-38, which was tested at a high concentration of 1 microM.
Cell Culture. All cells were maintained in an incubator at 37 degrees C and 5% CO2 with 95% humidity. The PDC lines were cultured according to standard operating procedures established by the NCI PDMR (https://pdmr.cancer.gov). Table 3 of the manuscript, lists the cell lines along with the number of the three cell types plated to form the mct-spheroids and media for tumor cell growth. After thawing, all PDC lines, except 997537-175-T-J1-PDC and 415267-285-R-J2-PDC, were cultured in Matrigel-coated flasks prepared with a working solution of 1X Ham's F-12 nutrient mix, without supplementation (Thermo Fisher Scientific, cat. 11765054), 100 U/mL penicillin-streptomycin (Thermo Fisher Scientific, cat. 15140122), and 2.5% Matrigel (Corning Inc., Corning, NY, cat. 354248) for the first three passages. The two PDC lines 997537-175-T-J1-PDC and 415267-285-R-J2-PDC were cultured on uncoated flasks. The 857933-349-R-J2-PDC line was cultured in 6C/Colon 1B media containing advanced DMEM/F-12 (Thermo Fisher Scientific, cat. 12634028), 10 mM HEPES (Thermo Fisher Scientific, cat. 15630080), 1X GlutaMAX supplement (Thermo Fisher Scientific, cat. 35050061), 0.1 mg/mL primocin (InvivoGen, San Diego, CA, cat. ant-pm-2), 10% defined fetal bovine serum, heat inactivated (HyClone Laboratories Inc., Logan, UT, cat. SH30070.03HI), 50% L-WRN conditioned media (ATCC, cat. CRL-3276), 1.25 mM N-Acetyl-L-cysteine (Sigma-Aldrich, cat. A9165), 10 mM nicotinamide (Sigma-Aldrich, cat. N0636), 1X B-27 supplement (Thermo Fisher Scientific, cat. 17504044), 1X N-2 supplement (Thermo Fisher Scientific, cat. […]
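Note: spheroids exposed to compounds for seven days before readout.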

| SMILES | viability, T/C (compound 0.0316 µM) | viability, T/C (compound 0.1 µM) | viability, T/C (compound 0.316 µM) | viability, T/C (compound 1 µM) | viability, T/C (compound 3.16 µM) | viability, T/C (compound 10 µM) | pIC50 | viability, T/C (compound 0.00316 µM) | viability, T/C (compound 0.01 µM) | viability, T/C (compound 0.00949 µM) | viability, T/C (compound 0.03 µM) | viability, T/C (compound 0.0949 µM) | viability, T/C (compound 0.3 µM) | viability, T/C (compound 0.949 µM) | viability, T/C (compound 3 µM) | viability, T/C (compound 0.000316 µM) | viability, T/C (compound 0.001 µM) |
| --- | --- | --- | --- | --- | --- | --- | --- | --- | --- | --- | --- | --- | --- | --- | --- | --- | --- |
| C#Cc1c(F)ccc2cc(O)cc(-c3ncc4c(N5CC6CCC(C5)N6)nc(OCC56CCCN5CC(F)C6)nc4c3F)c12 (stereo unspecified) | 120% and 105% and 97.1% | 106% and 100% and 107% | 87.3% and 94.5% and 105% | 98.4% (2×) and 94.2% | 97.4% and 109% and 119% | 104% and 98% and 121% | < 5.00 |  |  |  |  |  |  |  |  |  |  |
| C=CC(=O)N1CCN(c2nc(=O)n(-c3c(C)ccnc3C(C)C)c3nc(-c4c(O)cccc4F)c(F)cc23)C(C)C1 (stereo unspecified) | 106% and 101% and 103% | 89% and 126% and 115% | 117% and 111% and 114% | 101% and 130% and 102% | 129% and 144% and 132% | 127% and 135% and 113% | < 5.00 |  |  |  |  |  |  |  |  |  |  |
| C=CCn1c(=O)c2cnc(Nc3ccc(N4CCN(C)CC4)cc3)nc2n1-c1cccc(C(C)(C)O)n1 | 106% and 108% and 122% | 90.9% and 98.5% and 98% | 118% and 116% and 99.9% | 94.8% and 187% and 136% |  |  | < 6.00 | 100% and 104% and 107% | 100% and 120% and 111% |  |  |  |  |  |  |  |  |
| CC(=O)O[C@H]1C(=O)[C@@]2(C)[C@H]([C@H](OC(=O)c3ccccc3)[C@]3(O)C[C@H](OC(=O)[C@H](O)[C@@H](NC(=O)c4ccccc4)c4ccccc4)C(C)=C1C3(C)C)[C@]1(OC(C)=O)CO[C@@H]1C[C@@H]2O |  |  |  |  |  |  | > 8.02 |  |  | 13.3% and 11.4% and 6.22% | 9.21% and 8.32% and 5.81% | 10.3% and 7.91% and 5.5% | 7.66% and 7.33% and 5.13% | 6.14% and 7.78% and 6.34% | 7.69% and 7.6% and 7.01% |  |  |
| CC(C)n1c(=O)n(C)c2cnc3cc(F)c(-c4ccc(OCCCN5CCCCC5)nc4)cc3c21 | 100% and 106% and 98.1% | 96.9% and 119% and 91.5% | 103% and 111% and 98.1% | 97.5% and 101% and 93% | 83.8% and 95.1% and 86.4% | 56.6% and 97.9% and 74.8% | < 5.00 |  |  |  |  |  |  |  |  |  |  |
| CC1COCCN1c1cc(-c2ccnn2C)c2ccnc(-c3ccn[nH]3)c2n1 (stereo unspecified) | 99.3% and 108% and 116% | 70.3% and 81.8% and 110% | 23.4% and 22.9% and 30.8% | 11.2% and 11% and 16.2% | 8.42% and 8.52% and 10.7% | 6.55% and 7.74% and 10.3% | 6.78 and 6.73 and 6.62 |  |  |  |  |  |  |  |  |  |  |
| CC1COCCN1c1cc(C2(O)CC3CCC(C2)O3)c2cnn(-c3ccn[nH]3)c2n1 (stereo unspecified) | 98.5% and 101% and 111% | 49.5% and 43.5% and 74.9% | 15.2% and 14.2% and 20.3% | 10.6% and 9.31% and 13.1% | 6.4% and 7.44% and 9.6% | 3.63% and 5.73% and 6.18% | 7.01 and 7.06 and 6.77 |  |  |  |  |  |  |  |  |  |  |
| CC1COCCN1c1cc(C2(S(C)(=N)=O)CC2)nc(-c2ccnc3[nH]ccc23)n1 (stereo unspecified) | 97.2% and 103% and 97.7% | 101% (2×) and 94.1% | 109% and 115% and 116% | 97.7% and 154% and 117% | 37.8% and 46% and 35.8% | 9.87% and 13% and 14.6% | 5.60 and 5.53 |  |  |  |  |  |  |  |  |  |  |
| CCCS(=O)(=O)Nc1ccc(F)c(C(=O)c2c[nH]c3ncc(-c4ccc(Cl)cc4)cc23)c1F | 106% and 96.3% and 94.9% | 97.9% and 102% and 107% | 117% and 97.8% and 105% | 96.7% and 100% and 109% | 113% (2×) and 108% | 7.16% and 6.83% and 1.07% | 5.22 and 5.23 and 5.24 |  |  |  |  |  |  |  |  |  |  |
| CC[C@@]1(O)C(=O)OCc2c1cc1n(c2=O)Cc2cc3c(CN(C)C)c(O)ccc3nc2-1 | 54.6% and 99.2% and 57.2% | 10.1% and 17.6% and 11.1% |  |  |  |  | 7.44 and 7.20 and 7.43 | 105% and 98.4% and 122% | 90.4% and 90% and 93.3% |  |  |  |  |  |  | 113% and 104% and 102% | 102% (2×) and 109% |
| CCc1c2c(nc3ccc(O)cc13)-c1cc3c(c(=O)n1C2)COC(=O)[C@]3(O)CC | 6.94% and 13.9% and 6.52% | 5.24% and 8.86% and 5.52% | 3.34% and 4.22% (2×) | 1.24% and 3.11% and 2.06% |  |  | 8.48 and 8.11 and > 8.50 | 51.3% and 111% and 38.4% | 12.8% and 30.6% and 13.8% |  |  |  |  |  |  |  |  |
| CCc1cc2c(N3CCc4c(cc(Cn5ccnc5)cc4-c4cn(C)nc4C(F)(F)F)C3=O)cc(C)nc2c(OC)n1 | 89.8% and 99.4% and 115% | 81.6% and 103% and 101% | 74.5% and 132% and 120% | 62.8% and 85.8% and 94.5% | 49.1% and 62% and 75.6% | 26.1% and 50.8% and 38.6% | 5.58 and < 5.00 and 5.16 |  |  |  |  |  |  |  |  |  |  |
| CCc1cc2c(N3CCc4c(cc(Cn5ccnc5)cc4-c4cn(C)nc4C(F)(F)F)C3=O)ccnc2c(OC)n1 | 83.3% and 126% and 119% | 84.9% and 133% and 116% | 73.8% and 136% and 139% | 74.3% and 100% and 104% | 47.2% and 73.1% and 78.9% | 32.6% and 47.8% and 46.6% | 5.54 and 5.02 and 5.05 |  |  |  |  |  |  |  |  |  |  |
